Experimental data: the NIST ThermoML archive (doi:10.1007/s10765-008-0535-5)
Numbers after ± are expanded uncertainties.

Test: wn = mass fraction of the nth substance listed
Settings: Liquid, Pycnometric method, w2 = 0.5111

Structure (SMILES): FC(F)C(F)(F)F [pentafluoroethane] + FCF
- mass density (268.15 K, 3423 kPa): 1190.3 ± 1.9 kg/m3
- mass density (269.15 K, 4259 kPa): 1190.1 ± 1.9 kg/m3
- mass density (270.15 K, 5065 kPa): 1189.9 ± 1.9 kg/m3
- mass density (270.15 K, 5095 kPa): 1189.9 ± 1.9 kg/m3
- mass density (270.15 K, 5157 kPa): 1190.1 ± 1.9 kg/m3
- mass density (271.15 K, 5903 kPa): 1189.7 ± 1.9 kg/m3
- mass density (271.15 K, 5931 kPa): 1189.7 ± 1.9 kg/m3
- mass density (271.15 K, 5992 kPa): 1189.9 ± 1.9 kg/m3
- mass density (272.15 K, 6740 kPa): 1189.6 ± 1.9 kg/m3
- mass density (272.15 K, 6767 kPa): 1189.5 ± 1.9 kg/m3
- mass density (272.15 K, 6828 kPa): 1189.7 ± 1.9 kg/m3
- mass density (273.15 K, 7576 kPa): 1189.4 ± 1.9 kg/m3
- mass density (273.15 K, 7602 kPa): 1189.3 ± 1.9 kg/m3
- mass density (273.15 K, 7662 kPa): 1189.5 ± 1.9 kg/m3
- mass density (274.15 K, 8411 kPa): 1189.2 ± 1.9 kg/m3
- mass density (274.15 K, 8437 kPa): 1189.2 ± 1.9 kg/m3
- mass density (274.15 K, 8496 kPa): 1189.3 ± 1.9 kg/m3
- mass density (275.15 K, 9245 kPa): 1189 ± 1.9 kg/m3
- mass density (275.15 K, 9272 kPa): 1189 ± 1.9 kg/m3
- mass density (275.15 K, 9328 kPa): 1189.2 ± 1.9 kg/m3
- mass density (276.15 K, 10082 kPa): 1188.8 ± 1.9 kg/m3
- mass density (276.15 K, 10107 kPa): 1188.8 ± 1.9 kg/m3
- mass density (276.15 K, 10161 kPa): 1189 ± 1.9 kg/m3
- mass density (277.15 K, 10917 kPa): 1188.6 ± 1.9 kg/m3
- mass density (277.15 K, 10942 kPa): 1188.6 ± 1.9 kg/m3
- mass density (277.15 K, 10993 kPa): 1188.8 ± 1.9 kg/m3
- mass density (278.15 K, 11753 kPa): 1188.4 ± 1.9 kg/m3
- mass density (278.15 K, 11776 kPa): 1188.4 ± 1.9 kg/m3
- mass density (278.15 K, 11824 kPa): 1188.6 ± 1.9 kg/m3
- mass density (279.15 K, 12587 kPa): 1188.2 ± 1.9 kg/m3
- mass density (279.15 K, 12611 kPa): 1188.2 ± 1.9 kg/m3
- mass density (279.15 K, 12657 kPa): 1188.4 ± 1.9 kg/m3
- mass density (280.15 K, 13423 kPa): 1188.1 ± 1.9 kg/m3
- mass density (280.15 K, 13444 kPa): 1188.1 ± 1.9 kg/m3
- mass density (280.15 K, 13488 kPa): 1188.2 ± 1.9 kg/m3
- mass density (281.15 K, 14258 kPa): 1187.9 ± 1.9 kg/m3
- mass density (281.15 K, 14277 kPa): 1187.9 ± 1.9 kg/m3
- mass density (281.15 K, 14319 kPa): 1188.1 ± 1.9 kg/m3
- mass density (282.15 K, 15091 kPa): 1187.7 ± 1.9 kg/m3
- mass density (282.15 K, 15110 kPa): 1187.7 ± 1.9 kg/m3
- mass density (282.15 K, 15148 kPa): 1187.9 ± 1.9 kg/m3
- mass density (283.15 K, 15926 kPa): 1187.5 ± 1.9 kg/m3
- mass density (283.15 K, 15943 kPa): 1187.6 ± 1.9 kg/m3
- mass density (283.15 K, 15978 kPa): 1187.7 ± 1.9 kg/m3
- mass density (284.15 K, 16759 kPa): 1187.4 ± 1.9 kg/m3
- mass density (284.15 K, 16775 kPa): 1187.4 ± 1.9 kg/m3
- mass density (284.15 K, 16808 kPa): 1187.6 ± 1.9 kg/m3
- mass density (285.15 K, 17592 kPa): 1187.2 ± 1.9 kg/m3
- mass density (285.15 K, 17606 kPa): 1187.2 ± 1.9 kg/m3
- mass density (285.15 K, 17637 kPa): 1187.4 ± 1.9 kg/m3
- mass density (286.15 K, 18423 kPa): 1187.1 ± 1.9 kg/m3
- mass density (286.15 K, 18437 kPa): 1187.1 ± 1.9 kg/m3
- mass density (286.15 K, 18467 kPa): 1187.2 ± 1.9 kg/m3
- mass density (287.15 K, 19253 kPa): 1186.9 ± 1.9 kg/m3
- mass density (287.15 K, 19268 kPa): 1186.9 ± 1.9 kg/m3
- mass density (287.15 K, 19297 kPa): 1187.1 ± 1.9 kg/m3
- mass density (288.15 K, 20083 kPa): 1186.7 ± 1.9 kg/m3
- mass density (288.15 K, 20097 kPa): 1186.8 ± 1.9 kg/m3
- mass density (288.15 K, 20124 kPa): 1186.9 ± 1.9 kg/m3
- mass density (289.15 K, 20914 kPa): 1186.6 ± 1.9 kg/m3
- mass density (289.15 K, 20926 kPa): 1186.6 ± 1.9 kg/m3
- mass density (289.15 K, 20951 kPa): 1186.8 ± 1.9 kg/m3
- mass density (290.15 K, 21743 kPa): 1186.4 ± 1.9 kg/m3
- mass density (290.15 K, 21755 kPa): 1186.5 ± 1.9 kg/m3
- mass density (290.15 K, 21778 kPa): 1186.6 ± 1.9 kg/m3
- mass density (291.15 K, 22571 kPa): 1186.3 ± 1.9 kg/m3
- mass density (291.15 K, 22583 kPa): 1186.3 ± 1.9 kg/m3
- mass density (291.15 K, 22607 kPa): 1186.5 ± 1.9 kg/m3
- mass density (292.15 K, 23400 kPa): 1186.2 ± 1.9 kg/m3
- mass density (292.15 K, 23410 kPa): 1186.2 ± 1.9 kg/m3
- mass density (292.15 K, 23433 kPa): 1186.4 ± 1.9 kg/m3
- mass density (293.15 K, 24226 kPa): 1186 ± 1.9 kg/m3
- mass density (293.15 K, 24236 kPa): 1186 ± 1.9 kg/m3
- mass density (293.15 K, 24257 kPa): 1186.2 ± 1.9 kg/m3
- mass density (294.15 K, 25053 kPa): 1185.9 ± 1.9 kg/m3
- mass density (294.15 K, 25062 kPa): 1185.9 ± 1.9 kg/m3
- mass density (294.15 K, 25082 kPa): 1186.1 ± 1.9 kg/m3
- mass density (295.15 K, 25878 kPa): 1185.7 ± 1.9 kg/m3
- mass density (295.15 K, 25887 kPa): 1185.7 ± 1.9 kg/m3
- mass density (295.15 K, 25903 kPa): 1185.9 ± 1.9 kg/m3
- mass density (296.15 K, 5585 kPa): 1097.9 ± 1.8 kg/m3
- mass density (296.15 K, 5620 kPa): 1097.9 ± 1.8 kg/m3
- mass density (296.15 K, 5667 kPa): 1097.9 ± 1.8 kg/m3
- mass density (296.15 K, 26704 kPa): 1185.6 ± 1.9 kg/m3
- mass density (296.15 K, 26711 kPa): 1185.6 ± 1.9 kg/m3
- mass density (296.15 K, 26725 kPa): 1185.8 ± 1.9 kg/m3
- mass density (297.15 K, 6213 kPa): 1097.7 ± 1.8 kg/m3
- mass density (297.15 K, 6246 kPa): 1097.7 ± 1.8 kg/m3
- mass density (297.15 K, 6292 kPa): 1097.7 ± 1.8 kg/m3
- mass density (297.15 K, 27528 kPa): 1185.5 ± 1.9 kg/m3
- mass density (297.15 K, 27534 kPa): 1185.5 ± 1.9 kg/m3
- mass density (297.15 K, 27546 kPa): 1185.6 ± 1.9 kg/m3
- mass density (298.15 K, 6841 kPa): 1097.5 ± 1.8 kg/m3
- mass density (298.15 K, 6872 kPa): 1097.5 ± 1.8 kg/m3
- mass density (298.15 K, 6917 kPa): 1097.6 ± 1.8 kg/m3
- mass density (298.15 K, 28352 kPa): 1185.4 ± 1.9 kg/m3
- mass density (298.15 K, 28357 kPa): 1185.3 ± 1.9 kg/m3
